Measured values published in patent US4317775A (Hoffmann-La Roche Inc., priority 1980, dated 1982).
Values after ≈ are worked out from the molar mass of the structure shown. Values joined by “and” are separate entries in the source; they are usually repeats but may differ in a detail not shown here. Equal values may be shown once. Where a name gives a salt, the structure may show the parent alone. Read-outs that look alike come from different tables or passages of the source.

What was measured:
E. coli = experiment: In vivo activity against systemic infection in mice, E. coli; settings: in mg/kg
Description: (§1) The PD50 is the protective dose for 50% of the animals treated against a challenge organism.

P. mirabilis = experiment: In vivo activity against systemic infection in mice, P. mirabilis; settings: in mg/kg
Description: as §1

Proteus vulgari = experiment: In vitro activity (MIC/MBC), Proteus vulgari; type: cell-based; settings: for MBC: read-out: Minimum Inhibitory Concentration (MBC); for MIC: read-out: Minimum Inhibitory Concentration (MIC)
Description: (§2) MIC is the Minimum Inhibitory Concentration. MBC is the Minimum Bactericidal Concentration.
(§3) Results reported in Table 3(a) are reported as MIC defined above and results reported in Table 3(b) are reported as MBC defined above.

Streptococcus pyogenes = experiment: In vitro activity (MIC/MBC), Streptococcus pyogenes; type: cell-based; settings: for MBC: read-out: Minimum Inhibitory Concentration (MBC); for MIC: read-out: Minimum Inhibitory Concentration (MIC)
Description: as §2, §3

S. pneumoniae II = experiment: In vivo activity against systemic infection in mice, S. pneumoniae II
Description: as §1

S. pneumoniae I = experiment: In vivo activity against systemic infection in mice, S. pneumoniae I
Description: as §1

P. aeruginosa = experiment: In vivo activity against systemic infection in mice, P. aeruginosa
Description: as §1

Klebsiella pneumoniae = experiment: In vitro activity (MIC/MBC), Klebsiella pneumoniae; type: cell-based; settings: for MBC: read-out: Minimum Inhibitory Concentration (MBC); for MIC: read-out: Minimum Inhibitory Concentration (MIC)
Description: as §2, §3

Staphylococcus aureus = experiment: In vitro activity (MIC/MBC), Staphylococcus aureus; type: cell-based; settings: for MBC: read-out: Minimum Inhibitory Concentration (MBC); for MIC: read-out: Minimum Inhibitory Concentration (MIC)
Description: as §2, §3

in vivo = settings: mouse
Escherichia coli = experiment: In vitro activity (MIC/MBC), Escherichia coli; type: cell-based; settings: for MBC: read-out: Minimum Inhibitory Concentration (MBC)
Description: as §2, §3

S. pyogenes = experiment: In vivo activity against systemic infection in mice, S. pyogenes
Description: as §1

K. pneumoniae = experiment: In vivo activity against systemic infection in mice, K. pneumoniae; settings: in mg/kg
Description: as §1

[1] = system: Salmonella schottmuelleri; experiment: In vitro activity (MIC/MBC), Salmonella schottmuelleri; type: cell-based; settings: for MBC: Salmonella schottmuelleri, read-out: Minimum Inhibitory Concentration (MBC); for MIC: Salmonella, read-out: Minimum Inhibitory Concentration (MIC)
Description: as §2, §3

S. aureus = experiment: In vivo activity against systemic infection in mice, S. aureus; settings: in mg/kg
Description: as §1

S. schottmuelleri = experiment: In vivo activity against systemic infection in mice, S. schottmuelleri
Description: as §1

Salmonella typhosa = experiment: In vitro activity (MIC/MBC), Salmonella typhosa; type: cell-based; settings: Salmonella enterica; for MBC: read-out: Minimum Inhibitory Concentration (MBC), MBC, Salmonella typhosa; for MIC: read-out: Minimum Inhibitory Concentration (MIC), Salmonella typhosa
Description: as §2, §3

[2] = system: Streptococcus pneumoniae I; experiment: In vitro activity (MIC/MBC), Streptococcus pneumoniae I; type: cell-based; settings: for MBC: read-out: Minimum Inhibitory Concentration (MBC)
Description: as §2, §3

S. typhosa = experiment: In vivo activity against systemic infection in mice, S. typhosa
Description: as §1

[3] = Stability in aqueous solution (percent retention); type: physicochemical; settings: for Percent Retention: 6 hrs + 5° C., 192 hrs
Description: The stability of the compound was determined in 0.9% saline solution, 5% aqueous dextrose solution and in water, both at room temperature and/or 5° C.

[4] = system: Streptococcus pneumonia II; experiment: In vitro activity (MIC/MBC), Streptococcus pneumonia II; type: cell-based; settings: Streptococcus pneumoniae
Description: as §2, §3

[5] = read-out: Minimum Inhibitory Concentration (MIC)
[6] = 5% dextrose in water, 2.10 mg/ml, RT
[7] = 5% dextrose in water, 2.20 mg/ml, 5° C.
[8] = 5% dextrose in water, 30 mg/ml, RT
[9] = 5% dextrose in water, 33 mg/ml, 5° C.
[10] = aqueous concentrate, 155 mg/ml, 5° C.

CC1(C)S[C@@H]2[C@H](NC(=O)[C@H](NC3CCCS3)c3ccc(O)cc3)C(=O)N2[C@H]1C(=O)O (relative stereo) [Compound III, {2S-[2α,5α,6β(S*)]}-6-{[tetrahydro-2-thienylamino-(4-hydroxyphenyl)acetyl]amino}-3,3-dimethyl-7-oxo-4-thia-1-azabicyclo[3.2.0]heptane-2-carboxylic acid sodium salt]
PD50 (E. coli; oral): 18.7 | PD50 (E. coli; subcutaneous): 19.4 | PD50 (P. mirabilis; oral): 3.8 | PD50 (P. mirabilis; subcutaneous): 2.5 | MBC (Proteus vulgari): 0.554 mg/L | MIC (Proteus vulgari): 0.554 mg/L | MBC (Streptococcus pyogenes): > 8.88 mg/L | MIC (Streptococcus pyogenes): 0.554 mg/L | PD50 (S. pneumoniae II; oral): 3.2 mg/kg | PD50 (S. pneumoniae II; subcutaneous): 3.2 mg/kg | PD50 (S. pneumoniae I; oral): 4.7 mg/kg | PD50 (S. pneumoniae I; subcutaneous): 2.5 mg/kg | PD50 (P. aeruginosa; oral): > 142 mg/kg | PD50 (P. aeruginosa; subcutaneous): > 142 mg/kg | MBC (Klebsiella pneumoniae): 1.11 mg/L | MIC (Klebsiella pneumoniae): 0.554 mg/L | MBC (Staphylococcus aureus): 0.138 mg/L | MIC (Staphylococcus aureus): 0.138 mg/L | LD50 (in vivo; ip): 668 mg/kg | LD50 (in vivo; po): 558 mg/kg | LD50 (in vivo; sc): 598 mg/kg | MBC (Escherichia coli): 4.44 mg/L | MIC (Escherichia coli; [5]): 4.44 mg/L | PD50 (S. pyogenes; oral): 6.3 mg/kg | PD50 (S. pyogenes; subcutaneous): 4.1 mg/kg | PD50 (K. pneumoniae; oral): 15.5 | PD50 (K. pneumoniae; subcutaneous): 5.3

CC1(C)S[C@@H]2[C@H](NC(=O)[C@@H](c3ccc(O)cc3)N(C3CCCCO3)C3CCCCO3)C(=O)N2[C@H]1C(=O)O (relative stereo) [Compound II, {2S-[2α,5α,6β(S*)]}-6-[bis(tetrahydro-2-H-pyran-2-yl)amino]{[(4-hydroxyphenyl)acetyl]amino}-3,3-dimethyl-7-oxo-4-thia-1-azabicyclo[3.2.0]heptane3-carboxylic acid sodium salt]
PD50 (E. coli; oral): 23 | PD50 (E. coli; subcutaneous): 18 | MBC [1]: 0.98 mg/L | MIC [1]: 0.98 mg/L | PD50 (S. aureus; subcutaneous): 0.5 | PD50 (S. schottmuelleri; oral): 1.9 mg/kg | PD50 (S. schottmuelleri; subcutaneous): 5.7 mg/kg | MBC (Streptococcus pyogenes): 6.31 mg/L | MIC (Streptococcus pyogenes): 0.39 mg/L | MBC (Salmonella typhosa): 0.12 mg/L | MIC (Salmonella typhosa): 0.12 mg/L | PD50 (S. pneumoniae I; oral): 0.7 mg/kg | PD50 (S. pneumoniae I; subcutaneous): 0.7 mg/kg | MBC [2]: 0.049 mg/L | MIC [2, 5]: 0.049 mg/L | MBC (Klebsiella pneumoniae): 0.98 mg/L | MIC (Klebsiella pneumoniae): 0.09 mg/L | PD50 (S. typhosa; oral): 3.6 mg/kg | PD50 (S. typhosa; subcutaneous): 1.4 mg/kg | MBC (Staphylococcus aureus): 0.098 mg/L | MIC (Staphylococcus aureus): 0.098 mg/L | remaining at 24 h ([3]; 0.9% saline, 2.20 mg/ml, 5° C.): 100% | remaining at 48 h ([3]; 0.9% saline, 2.20 mg/ml, 5° C.): 100% | remaining at 6 h ([3]; 0.9% saline, 2.25 mg/ml, RT): 96% | Percent Retention ([3]; 0.9% saline, 2.25 mg/ml, RT): 98% | remaining at 6 h ([3]; 0.9% saline, 2.30 mg/ml, RT): 96% | remaining at 24 h ([3]; 0.9% saline, 2.30 mg/ml, RT): 91% | remaining at 48 h ([3]; 0.9% saline, 2.30 mg/ml, RT): 84% | remaining at 6 h ([3]; 0.9% saline, 29.1 mg/ml, RT): 97% | time for which 90% of potency was maintained ([3]; 0.9% saline, 0.2% solution, 5° C.): ≥ 192 h | time for which 90% of potency was maintained ([3]; 0.9% saline, 0.2% solution, room temperature): about 24 hours | time for which 90% of potency was maintained ([3]; 0.9% saline, 3% solution, 5° C.): ≥ 192 h | time for which 90% of potency was maintained ([3]; 0.9% saline, 3% solution, room temperature): less than 24 hours | remaining at 24 h ([3]; 0.9% saline, 31. mg/ml, 5° C.): 100% | remaining at 48 h ([3]; 0.9% saline, 31. mg/ml, 5° C.): 100% | remaining at 6 h ([3]; 0.9% saline, 34. mg/ml, RT): 97% | remaining at 24 h ([3]; 0.9% saline, 34. mg/ml, RT): 85% | remaining at 48 h ([3]; 0.9% saline, 34. mg/ml, RT): 76% | Percent Retention ([3]; 5% Dextrose in Water, 2.10 mg/ml, RT): 73% | Percent Retention ([3]; 5% Dextrose in Water, 31 mg/ml, RT): 81% | remaining at 6 h [3, 6]: 95% | remaining at 24 h [3, 6]: 89% | remaining at 48 h [3, 6]: 71% | remaining at 24 h [3, 7]: 95% | remaining at 48 h [3, 7]: 91% | remaining at 6 h [3, 8]: 96% | remaining at 24 h [3, 8]: 92% | remaining at 48 h [3, 8]: 83% | remaining at 6 h ([3]; 5% dextrose in water, 31 mg/ml, RT): 100% | remaining at 24 h [3, 9]: 94% | remaining at 48 h [3, 9]: 84% | time for which 90% of potency was maintained ([3]; 5% dextrose in water, 0.2% solution, 5° C.): 48 h | time for which 90% of potency was maintained ([3]; 5% dextrose in water, 0.2% solution, room temperature): about 24 hours | time for which 90% of potency was maintained ([3]; 5% dextrose in water, 3% solution, 5° C.): less than 48 hours | time for which 90% of potency was maintained ([3]; 5% dextrose in water, 3% solution, room temperature): about 24 hours | remaining at 24 h [3, 10]: 100% | remaining at 48 h [3, 10]: 100% | LD50 (in vivo; ip): 6310 mg/kg | LD50 (in vivo; po): > 6310 mg/kg | LD50 (in vivo; sc): 4460 mg/kg | MBC (Escherichia coli): 3.94 mg/L | MIC (Escherichia coli; [5]): 3.94 mg/L | PD50 (S. pyogenes; oral): 1.9 mg/kg | PD50 (S. pyogenes; subcutaneous): 3.4 mg/kg | PD50 (K. pneumoniae; oral): 8.6 | PD50 (K. pneumoniae; subcutaneous): 5.7

CC1(C)S[C@@H]2[C@H](NC(=O)[C@H](N)c3ccc(O)cc3)C(=O)N2[C@H]1C(=O)O [Amoxicillin, amoxicillin, reference compound]
PD50 (E. coli; oral): 14.1 and 18.5 and 19.3 and 13.1 | PD50 (E. coli; subcutaneous): 10 and 5.9 and 7.3 and 6.8 | MBC [1]: 0.78 mg/L (≈ 2.13 µM) | MIC [1]: 0.78 mg/L (≈ 2.13 µM) | PD50 (P. mirabilis; oral): 1.8 and 1.1 | PD50 (P. mirabilis; subcutaneous): < 0.5 and 0.6 | PD50 (S. aureus; oral): 0.5 and 0.6 | PD50 (S. aureus; subcutaneous): < 0.2 | MBC (Proteus vulgari): 0.78 mg/L (≈ 2.13 µM) | MIC (Proteus vulgari): 1.56 mg/L (≈ 4.27 µM) | MBC (Salmonella typhosa): 0.39 mg/L (≈ 1.07 µM) | MIC (Salmonella typhosa): 0.39 mg/L (≈ 1.07 µM) | MBC ([4]; MBC, read-out: Minimum Inhibitory Concentration (MBC)): 0.049 mg/L (≈ 0.134 µM) | MIC [4, 5]: 0.024 mg/L (≈ 0.0657 µM) | LD50 (Acute toxicity in mice; mice, i.p.): 3535 mg/kg and 3150 mg/kg | LD50 (Acute toxicity in mice; mouse, in vivo, ip, LD50, mice): 3140 mg/kg | LD50 (Acute toxicity in mice; mouse, in vivo, po, LD50, mice): > 10000 mg/kg | LD50 (Acute toxicity in mice; mouse, in vivo, sc, LD50, mice): > 10000 mg/kg | MBC [2]: 0.024 mg/L (≈ 0.0657 µM) | PD50 (P. aeruginosa; oral): > 200 mg/kg | PD50 (P. aeruginosa; subcutaneous): > 200 mg/kg | MIC (Klebsiella pneumoniae): 0.39 mg/L (≈ 1.07 µM) | MIC (Escherichia coli; [5]): 3.12 mg/L (≈ 8.55 µM) | MIC (Escherichia coli; read-out: Minimum Inhibitory Concentration (MIC), Escherichia coli): 6.25 mg/L (≈ 17.1 µM) | PD50 (K. pneumoniae; subcutaneous): 3.6 and 5 and 3.7
